According to US9926281B2 (priority 2014, dated 2018):

What was measured:
[1] = target: human ADAMTS-5 (Homo sapiens (Human), UniProt Q9UNA0); conditions: read-out: hADAMTS-5 potency IC50
Experimental: Finally, the fluorescence is read on the Envision (Perkin Elmer) after an incubation of 90 min at 37° C.

[2] = target: human TACE (Homo sapiens (Human), UniProt P78536); conditions: read-out: TACE potency IC50
Chain of human TACE (P78536 whole entry, looked up, change not shown): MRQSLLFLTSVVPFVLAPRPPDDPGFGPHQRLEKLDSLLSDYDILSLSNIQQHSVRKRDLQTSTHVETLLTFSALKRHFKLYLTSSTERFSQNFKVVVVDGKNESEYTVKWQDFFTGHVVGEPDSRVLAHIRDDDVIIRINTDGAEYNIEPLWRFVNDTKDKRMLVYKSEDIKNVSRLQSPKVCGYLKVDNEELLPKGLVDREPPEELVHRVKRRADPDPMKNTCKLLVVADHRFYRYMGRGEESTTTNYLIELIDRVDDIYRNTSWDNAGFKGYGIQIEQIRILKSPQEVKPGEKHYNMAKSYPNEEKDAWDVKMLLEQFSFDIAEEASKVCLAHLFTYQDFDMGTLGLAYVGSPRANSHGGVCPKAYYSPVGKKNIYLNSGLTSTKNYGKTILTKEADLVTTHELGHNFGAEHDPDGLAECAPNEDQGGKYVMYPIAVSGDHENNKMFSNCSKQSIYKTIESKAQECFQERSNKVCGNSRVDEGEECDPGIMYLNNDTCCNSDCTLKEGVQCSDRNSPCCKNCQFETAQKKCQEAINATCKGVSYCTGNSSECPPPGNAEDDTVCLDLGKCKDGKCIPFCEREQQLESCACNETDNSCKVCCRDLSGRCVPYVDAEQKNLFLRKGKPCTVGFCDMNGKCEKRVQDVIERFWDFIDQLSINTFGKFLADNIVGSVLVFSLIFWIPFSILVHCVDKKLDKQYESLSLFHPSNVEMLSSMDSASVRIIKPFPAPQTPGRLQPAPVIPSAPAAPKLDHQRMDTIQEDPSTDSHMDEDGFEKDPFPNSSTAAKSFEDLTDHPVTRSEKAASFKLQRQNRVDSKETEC

Chain of human ADAMTS-5 (Q9UNA0 262-930): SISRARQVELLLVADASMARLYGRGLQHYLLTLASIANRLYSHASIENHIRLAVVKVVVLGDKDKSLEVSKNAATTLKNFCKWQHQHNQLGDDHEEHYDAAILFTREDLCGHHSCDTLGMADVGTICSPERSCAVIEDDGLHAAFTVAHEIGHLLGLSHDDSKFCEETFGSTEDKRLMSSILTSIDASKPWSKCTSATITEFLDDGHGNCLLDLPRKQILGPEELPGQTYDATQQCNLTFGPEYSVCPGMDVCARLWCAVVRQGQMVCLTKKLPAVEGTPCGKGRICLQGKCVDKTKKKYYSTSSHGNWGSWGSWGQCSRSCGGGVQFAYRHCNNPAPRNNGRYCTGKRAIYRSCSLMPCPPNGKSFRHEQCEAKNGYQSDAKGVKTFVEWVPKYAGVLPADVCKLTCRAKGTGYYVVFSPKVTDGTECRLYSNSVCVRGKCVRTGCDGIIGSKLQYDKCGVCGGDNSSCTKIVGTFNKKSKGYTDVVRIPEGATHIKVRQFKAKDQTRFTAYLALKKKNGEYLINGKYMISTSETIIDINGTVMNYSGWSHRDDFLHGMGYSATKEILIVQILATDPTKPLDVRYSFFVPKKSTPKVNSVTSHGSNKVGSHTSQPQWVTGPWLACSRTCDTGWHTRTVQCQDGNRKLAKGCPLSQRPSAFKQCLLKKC

C[C@H]1CN(C(=O)CCC2(c3cccnc3)NC(=O)NC2=O)CCN1c1cc(Cl)cc(Cl)c1 (stereo partly drawn) [compound 318, 5-[3-[(3S)-4-(3,5-dichlorophenyl)-3-methyl-piperazin-1-yl]-3-oxo-propyl]-5-(3-pyridyl)imidazolidine-2,4-dione]
IC50 [1]: 59 nM | IC50 [2]: 2190 nM

C[C@H]1CN(C(=O)CCC2(C3CC3)NC(=O)NC2=O)CCN1c1cccc(-c2cncc(Cl)c2)c1 (stereo partly drawn) [compound 322, 5-[3-[(3S)-4-[3-(5-chloro-3-pyridyl)phenyl]-3-methyl-piperazin-1-yl]-3-oxo-propyl]-5-cyclopropyl-imidazolidine-2,4-dione]
IC50 [1]: 237 nM | IC50 [2]: > 4000 nM

Cc1ncccc1-c1cccc(N2CCN(C(=O)CCC3(C4CC4)NC(=O)NC3=O)C[C@@H]2C)c1 (stereo partly drawn) [compound 323, 5-cyclopropyl-5-[3-[(3S)-3-methyl-4-[3-(2-methyl-3-pyridyl)phenyl]piperazin-1-yl]-3-oxo-propyl]imidazolidine-2,4-dione]
IC50 [1]: 1240 nM | IC50 [2]: > 4000 nM

Cc1ccc(-c2cccc(N3CCN(C(=O)CCC4(C5CC5)NC(=O)NC4=O)C[C@@H]3C)c2)cn1 (stereo partly drawn) [compound 324, 5-cyclopropyl-5-[3-[(3S)-3-methyl-4-[3-(6-methyl-3-pyridyl)phenyl]piperazin-1-yl]-3-oxo-propyl]imidazolidine-2,4-dione]
IC50 [1]: 407 nM | IC50 [2]: > 4000 nM

C[C@H]1CN(C(=O)CCC2(C3CC3)NC(=O)NC2=O)CCN1c1cc(Cl)ccn1 (stereo partly drawn) [compound 325, 5-[3-[(3S)-4-(4-chloro-2-pyridyl)-3-methyl-piperazin-1-yl]-3-oxo-propyl]-5-cyclopropyl-imidazolidine-2,4-dione]
IC50 [1]: 796 nM | IC50 [2]: > 20000 nM

C[C@H]1CN(C(=O)CCC2(C3CC3)NC(=O)NC2=O)CCN1c1cccc2c1ccn2C (stereo partly drawn) [compound 328, 5-cyclopropyl-5-[3-[(3S)-3-methyl-4-(1-methylindol-4-yl)piperazin-1-yl]-3-oxo-propyl]imidazolidine-2,4-dione]
IC50 [1]: > 4000 nM | IC50 [2]: > 20000 nM

Cc1cc(-c2cccc(N3CCN(C(=O)CCC4(C5CC5)NC(=O)NC4=O)C[C@@H]3C)c2)ccn1 (stereo partly drawn) [compound 329, 5-cyclopropyl-5-[3-[(3S)-3-methyl-4-[3-(2-methyl-4-pyridyl)phenyl]piperazin-1-yl]-3-oxo-propyl]imidazolidine-2,4-dione]
IC50 [1]: 134 nM | IC50 [2]: > 20000 nM

C[C@H]1CN(C(=O)CCC2(C3CC3)NC(=O)NC2=O)CCN1c1cncc(C#N)c1 (stereo partly drawn) [compound 330, 5-[(2S)-4-[3-(4-cyclopropyl-2,5-dioxo-imidazolidin-4-yl)propanoyl]-2-methyl-piperazin-1-yl]pyridine-3-carbonitrile]
IC50 [1]: > 4000 nM | IC50 [2]: > 20000 nM

C[C@H]1CN(C(=O)CCC2(C3CC3)NC(=O)NC2=O)CCN1c1cc(F)cc(C#N)c1 (stereo partly drawn) [compound 334, 3-[(2S)-4-[3-(4-cyclopropyl-2,5-dioxo-imidazolidin-4-yl)propanoyl]-2-methyl-piperazin-1-yl]-5-fluoro-benzonitrile]
IC50 [1]: 430 nM | IC50 [2]: > 20000 nM

COc1cccc(C2(CCC(=O)N3CCN(c4cc(F)cc(F)c4)[C@@H](C)C3)NC(=O)NC2=O)n1 (stereo partly drawn) [compound 336, 5-[3-[(3S)-4-(3,5-difluorophenyl)-3-methyl-piperazin-1-yl]-3-oxo-propyl]-5-(6-methoxy-2-pyridyl)imidazolidine-2,4-dione]
IC50 [1]: 74 nM | IC50 [2]: > 4000 nM

C[C@H]1CN(C(=O)CCC2(C3CC3)NC(=O)NC2=O)CCN1c1cnc2ccn(C)c2c1 (stereo partly drawn) [compound 337, 5-cyclopropyl-5-[3-[(3S)-3-methyl-4-(1-methylpyrrolo[3,2-b]pyridin-6-yl)piperazin-1-yl]-3-oxo-propyl]imidazolidine-2,4-dione]
IC50 [1]: 764 nM | IC50 [2]: > 20000 nM

C[C@H]1CN(C(=O)CCC2(C3CC3)NC(=O)NC2=O)CCN1c1cc(F)cc(-c2cn[nH]c2)c1 (stereo partly drawn) [compound 338, 5-cyclopropyl-5-[3-[(3S)-4-[3-fluoro-5-(1H-pyrazol-4-yl)phenyl]-3-methyl-piperazin-1-yl]-3-oxo-propyl]imidazolidine-2,4-dione]
IC50 [1]: 60 nM | IC50 [2]: > 4000 nM

C[C@H]1CN(C(=O)CCC2(C3CC3)NC(=O)NC2=O)CCN1c1ccc(F)c(-c2cn[nH]c2)c1 (stereo partly drawn) [compound 340, 5-cyclopropyl-5-[3-[(3S)-4-[4-fluoro-3-(1H-pyrazol-4-yl)phenyl]-3-methyl-piperazin-1-yl]-3-oxo-propyl]imidazolidine-2,4-dione]
IC50 [1]: 155 nM | IC50 [2]: > 4000 nM

C[C@H]1CN(C(=O)CCC2(C3CC3)NC(=O)NC2=O)CCN1c1ccc2cnn(C)c2c1 (stereo partly drawn) [compound 341, 5-cyclopropyl-5-[3-[(3S)-3-methyl-4-(1-methylindazol-6-yl)piperazin-1-yl]-3-oxo-propyl]imidazolidine-2,4-dione]
IC50 [1]: 264 nM | IC50 [2]: 885 nM

CC(CC1(C2CC2)NC(=O)NC1=O)C(=O)N1CCN(c2ccc(F)cc2)[C@@H](C)C1 (stereo partly drawn) [compound 343, 5-cyclopropyl-5-[3-[(3S)-4-(4-fluorophenyl)-3-methyl-piperazin-1-yl]-2-methyl-3-oxo-propyl]imidazolidine-2,4-dione]
IC50 [1]: 22 nM | IC50 [2]: > 20000 nM

Cc1nc(N2CCN(C(=O)CCC3(C4CC4)NC(=O)NC3=O)C[C@@H]2C)no1 (stereo partly drawn) [compound 344, 5-cyclopropyl-5-[3-[(3S)-3-methyl-4-(5-methyl-1,2,4-oxadiazol-3-yl)piperazin-1-yl]-3-oxo-propyl]imidazolidine-2,4-dione]
IC50 [1]: > 20000 nM | IC50 [2]: > 20000 nM

C[C@H]1CN(C(=O)CCC2(c3ccccn3)NC(=O)NC2=O)CCN1c1cccc(F)c1 (stereo partly drawn) [compound 345, 5-[3-[(3S)-4-(3-fluorophenyl)-3-methyl-piperazin-1-yl]-3-oxo-propyl]-5-(2-pyridyl)imidazolidine-2,4-dione]
IC50 [1]: 50 nM | IC50 [2]: > 4000 nM

C[C@H]1CN(C(=O)CCC2(c3ccccn3)NC(=O)NC2=O)CCN1c1ccc(Cl)c(Cl)c1 (stereo partly drawn) [compound 347, 5-[3-[(3S)-4-(3,4-dichlorophenyl)-3-methyl-piperazin-1-yl]-3-oxo-propyl]-5-(2-pyridyl)imidazolidine-2,4-dione]
IC50 [1]: 21 nM | IC50 [2]: 2380 nM

C[C@H]1CN(C(=O)CCC2(c3ccccn3)NC(=O)NC2=O)CCN1c1cc(F)cc(F)c1 (stereo partly drawn) [compound 348, 5-[3-[(3S)-4-(3,5-difluorophenyl)-3-methyl-piperazin-1-yl]-3-oxo-propyl]-5-(2-pyridyl)imidazolidine-2,4-dione]
IC50 [1]: 34 nM | IC50 [2]: > 4000 nM

C[C@H]1CN(C(=O)CCC2(c3cnccn3)NC(=O)NC2=O)CCN1c1ccc(F)c(Cl)c1 (stereo partly drawn) [compound 349, 5-[3-[(3S)-4-(3-chloro-4-fluoro-phenyl)-3-methyl-piperazin-1-yl]-3-oxo-propyl]-5-pyrazin-2-yl-imidazolidine-2,4-dione]
IC50 [1]: 62 nM | IC50 [2]: > 4000 nM

Cc1noc(N2CCN(C(=O)CCC3(C4CC4)NC(=O)NC3=O)C[C@@H]2C)n1 (stereo partly drawn) [compound 352, 5-cyclopropyl-5-[3-[(3S)-3-methyl-4-(3-methyl-1,2,4-oxadiazol-5-yl)piperazin-1-yl]-3-oxo-propyl]imidazolidine-2,4-dione]
IC50 [1]: > 20000 nM | IC50 [2]: > 20000 nM

Cc1nc(C2(CCC(=O)N3CCN(c4cc(F)cc(F)c4)[C@@H](C)C3)NC(=O)NC2=O)c[nH]1 (stereo partly drawn) [compound 354, 5-[3-[(3S)-4-(3,5-difluorophenyl)-3-methyl-piperazin-1-yl]-3-oxo-propyl]-5-(2-methyl-1H-imidazol-4-yl)imidazolidine-2,4-dione]
IC50 [1]: > 20000 nM | IC50 [2]: > 20000 nM

COc1ccc(C2(CCC(=O)N3CCN(c4cc(F)cc(F)c4)[C@@H](C)C3)NC(=O)NC2=O)cn1 (stereo partly drawn) [compound 356, 5-[3-[(3S)-4-(3,5-difluorophenyl)-3-methyl-piperazin-1-yl]-3-oxo-propyl]-5-(6-methoxy-3-pyridyl)imidazolidine-2,4-dione]
IC50 [1]: 40 nM | IC50 [2]: > 4000 nM

CCC1(CC(C)C(=O)N2CCN(c3cncc(F)c3)[C@@H](C)C2)NC(=O)NC1=O (stereo partly drawn) [compound 360, 5-ethyl-5-[3-[(3S)-4-(5-fluoro-3-pyridyl)-3-methyl-piperazin-1-yl]-2-methyl-3-oxo-propyl]imidazolidine-2,4-dione]
IC50 [1]: 119 nM | IC50 [2]: > 20000 nM

C[C@H]1CN(C(=O)CCC2(c3cn(C)cn3)NC(=O)NC2=O)CCN1c1cc(F)cc(F)c1 (stereo partly drawn) [compound 361, 5-[3-[(3S)-4-(3,5-difluorophenyl)-3-methyl-piperazin-1-yl]-3-oxo-propyl]-5-(1-methylimidazol-4-yl)imidazolidine-2,4-dione]
IC50 [1]: 51 nM | IC50 [2]: > 20000 nM

C[C@H]1CN(C(=O)CCC2(c3cocn3)NC(=O)NC2=O)CCN1c1cc(F)cc(F)c1 (stereo partly drawn) [compound 362, 5-[3-[(3S)-4-(3,5-difluorophenyl)-3-methyl-piperazin-1-yl]-3-oxo-propyl]-5-oxazol-4-yl-imidazolidine-2,4-dione]
IC50 [1]: 50 nM | IC50 [2]: > 20000 nM

COCC1(CC(C)C(=O)N2CCN(c3cncc(Cl)c3)[C@@H](C)C2)NC(=O)NC1=O (stereo partly drawn) [compound 363, 5-[3-[(3S)-4-(5-chloro-3-pyridyl)-3-methyl-piperazin-1-yl]-2-methyl-3-oxo-propyl]-5-(methoxymethyl)imidazolidine-2,4-dione]
IC50 [1]: 76 nM | IC50 [2]: > 12000 nM

COCC1(CC(C)C(=O)N2CCN(c3ccc(F)cc3)[C@@H](C)C2)NC(=O)NC1=O (stereo partly drawn) [compound 366, 5-[3-[(3S)-4-(4-fluorophenyl)-3-methyl-piperazin-1-yl]-2-methyl-3-oxo-propyl]-5-(methoxymethyl)imidazolidine-2,4-dione]
IC50 [1]: 36 nM | IC50 [2]: > 4000 nM

C[C@H]1CN(C(=O)CCC2(C3CC3)NC(=O)NC2=O)CCN1c1cccc(-c2ccnn2C)c1 (stereo partly drawn) [compound 368, 5-cyclopropyl-5-[3-[(3S)-3-methyl-4-[3-(2-methylpyrazol-3-yl)phenyl]piperazin-1-yl]-3-oxo-propyl]imidazolidine-2,4-dione]
IC50 [1]: 257 nM | IC50 [2]: > 20000 nM
